From US10561658B2, “Thieno- and pyrrolopyrimidine analogues as anticancer agents and methods of use thereof” (UNIVERSITY OF MARYLAND, BALTIMORE COUNTY, priority 2015, dated 2020)

How the values were obtained:
Cryptococcus neoformans = assay: Antifungal growth inhibition and MIC95, C. neoformans strains; assay type: cell-based
Description: (§1) Evaluation of antimicrobial activity in vitro. Compounds were tested against the following panel of bacteria and fungi purchased from the American Type Culture Collection (ATCC). Briefly, bacteria were grown to mid-log phase, diluted with fresh medium to an optical density at 600 nm (OD600) of 0.030-0.060 and then diluted again 1:10. This suspension (195 μL) was added to wells in a 96 well microtiter plate (Sarstedt) and 5 μL of compound dissolved in DMSO was added to give a final concentration of 100-0.1 μM at 2.5% DMSO by volume. A DMSO negative control and standard antibiotic positive controls were included in each plate. All compounds were tested in triplicate for each concentration. Plates were sealed with parafilm, placed in a Ziploc bag to prevent evaporation, and incubated at 30° C. (fungi) or 37° C. (bacteria) for 16-20 hours (48 hours for C. neoformans). The OD600 values for each well were determined with a plate reader (Biotek, EL800) and the data were standardized to the DMSO control wells after subtracting the background from blank medium. Initial single concentrations were tested at 100 μM and active compounds were further tested with at least nine concentrations for a full dose response. Dose response curves were generated using GraphPad Prism 5 software and used to determine the MIC95 concentrations (minimal concentration that inhibits 95% of growth). Compounds 1, 2, 5 and 19 were screened for growth inhibition activity against a panel of bacteria and fungi at a concentration of 100 as shown in Table 2. Compound 5 was included to test the importance of the C4-Cl substituent for activity across a broader range of biological systems.
(§2) Compounds 1 and 2 were further tested against the susceptible fungal strains to determine the MIC95 values.

[1] = system: Candida albicans ATCC 10231; assay: Antifungal growth inhibition and MIC95, C. albicans; assay type: cell-based; conditions: ATCC10231; Candida albicans ATCC 10231, 100 μM
Description: as §1, §2

[2] = system: Staphylococcus aureus subsp. aureus (MRSA) ATCC 43300; assay: Antimicrobial growth inhibition, S. aureus (MRSA); assay type: cell-based; conditions: Staphylococcus aureus (MRSA) ATCC 43300, 100 μM
Description: as §1

[3] = system: Bacillus subtilis ATCC 6633; assay: Antimicrobial growth inhibition, B. subtilis; assay type: cell-based; conditions: ATCC6633; Bacillus subtilis ATCC 6633, 100 μM
Description: as §1

[4] = system: Escherichia coli ATCC 25922; assay: Antimicrobial growth inhibition, E. coli; assay type: cell-based; conditions: ATCC25922; Escherichia coli ATCC 25922, 100 μM
Description: as §1

[5] = system: murine leukemia L1210 cells; assay: Cell proliferation assay, L1210; assay type: cell-based; conditions: Mus musculus, 48 h proliferation, Coulter counter, read-out: IC50 L1210
Description: (§3) Cell proliferation assays for several of the compounds were performed on L1210, a mouse lymphocytic leukemia cell line; CCRF-CEM [39] an acute lymphoblastic leukemia cell line; and HeLa, a human cancer cell line derived from a human cervical adenocarcinoma. Murine Leukemia L1210, human lymphocytic CEM and human cervix carcinoma HeLa cells were obtained from the American Type Culture Collection (ATCC) (Rockville, Md.). All assays were performed in 96-well microtiter plates. To each well were added (5-7.5)×10^4 tumor cells and a given amount of the test compound. The cells were allowed to proliferate for 48 h (murine leukemia L1210 cells) or 72 h (human lymphocytic CEM and human cervix carcinoma HeLa cells) at 37° C. in a humidified CO2-controlled atmosphere. At the end of the incubation period, the cells were counted in a Coulter counter. The IC50 (50% inhibitory concentration) was defined as the concentration of the compound that inhibited cell proliferation by 50%. […] Presence of C7 iodine on the 2,4-dichloro pyrrolo[3,2-d] (compound 20) increases the anticancer activity by a factor of 5 when compared to compound 19. […] This alludes to a) importance of C7-I towards activity against cancer cell lines for the 2,4-O-benzylated analogues (15 and 16).

[6] = system: human lymphocytic CEM cells; assay: Cell proliferation assay, CEM; assay type: cell-based; conditions: CCRF-CEM, 72 h proliferation, Coulter counter
Description: as §3

[7] = system: human cervix carcinoma HeLa cells; assay: Cell proliferation assay, HeLa; assay type: cell-based; conditions: 72 h proliferation, Coulter counter
Description: as §3

[8] = system: L1210, CEM and HeLa cells; assay: Cell proliferation assays, comparison across cancer cell lines; assay type: cell-based; conditions: C7 iodine vs compound 19
Description: as §3

MDA-MB-231 cells [9] = assay: Apoptosis (annexin V), MDA-MB-231; assay type: cell-based, human; conditions: MDA-MB-231, tested concentration
Description: (§4) Cell-cycle and apoptosis studies were conducted in MDA-MB-231 cells. Cell-cycle analysis of compound 19 at 15 μM concentration lead to arrest of 60% cells in G2/M stage. Similarly, at 1.75 μM concentration, compound 20 arrested 30% of cells in G2/M stage. […] To evaluate the possible mechanism for arrest of cell proliferation, cell-cycle distribution was measured using propidium iodide staining and flow cytometry. […] There are several possibilities that could account for this, including: (i) that cell lysis occurs rapidly following induction of apoptosis, preventing significant accumulation of annexin V-positive bodies, or (ii) that a distinct cell death pathway is triggered by compound 19.

MDA-MB-231 cells [10] = assay: Cell cycle distribution (propidium iodide, flow cytometry), MDA-MB-231; assay type: cell-based, human; conditions: 1.75 μM
Description: Cell cycle distributions of MDA-MB-231 cells after 48 hours in the presence of equitoxic (IC80) doses of (a) compound 1 (15 μM) or (b) compound 2 (8 μM) analyzed by flow cytometry of fixed, propidium iodide-stained cells and compared to vehicle controls (DMSO). A minimum of 3000 cells were analyzed per cell population. Each bar represents the mean±SD across 4 independent cell samples.
as §4
Human metastatic breast cancer MDA-MB-231 cells were obtained from the American Type Culture Collection (ATCC) (Rockville, Md.) and maintained in Dulbecco's Modified Eagle's Medium (DMEM) containing 10% fetal bovine serum (FBS) without antibiotics at 37° C. in a humidified, CO2-controlled incubator. The cytotoxicity of compounds 1 and 2 was assessed by reduction of 3-(4, 5-dimethylthiazol-2-yl)-2,5-diphenyltetrazolium bromide (MTT). MDA-MB-231 cells were seeded in 96-well plates at 5×10^3 cells per well and treated with a range of drug concentrations. After 48 hours, cell viability was measured using the MTT Cell Proliferation Assay kit (ATCC) according to the manufacturer's instructions. Percent cell viability was plotted as a function of drug concentrations and analyzed using a sigmoidal dose response function with PRISM v3.03 software (GraphPad) to resolve drug concentrations yielding 50% cell death (IC50). The cell cycle distributions of MDA-MB-231 cells treated with compounds 1 or 2 were analyzed using propidium iodide staining and flow cytometry. 2×10^6 cells were seeded in 100 mm dishes and treated with compounds 1 or 2 at the IC80 values determined by cell viability assays or an equivalent volume of DMSO. 48 h following treatment the cells were collected, fixed, and stained with propidium iodide (Sigma Aldrich) immediately before analysis by flow cytometry.
As shown in Example 11, compounds 1 and 2 both induced apoptosis but involving a mechanism independent of cell cycle arrest. To test whether the toxicity of these agents for MDA-MB-231 cells proceeded via a similar pathway, their effects were monitored on cell cycle distributions using propidium iodide staining and flow cytometry. […]

Clc1ncc2sccc2n1 [Compound 5]
inhibition at 100 µM (Cryptococcus neoformans; ATCC66031, Cryptococcus neoformans ATCC 66031, 100 μM): < 43%
inhibition at 100 µM (Cryptococcus neoformans; C. neoformans B4546, 100 μM): < 43%
inhibition at 100 µM (Cryptococcus neoformans; C. neoformans JEC20, 100 μM): < 43%
inhibition at 100 µM (Cryptococcus neoformans; C. neoformans VANC-R265, 100 μM): < 43%
inhibition at 100 µM [1]: < 43%
inhibition at 100 µM [2]: < 43%
inhibition at 100 µM [3]: < 43%
inhibition at 100 µM [4]: < 43%

c1ccc(COc2nc(OCc3ccccc3)c3[nH]ccc3n2)cc1 [Compound 15, 2,4-Bis-benzyloxy-5H-pyrrolo[3,2-d]pyrimidine]
IC50 [5]: 118 ± 8 µM
IC50 [6]: 86 µM
IC50 [7]: 98 µM

Ic1c[nH]c2c(OCc3ccccc3)nc(OCc3ccccc3)nc12 [Compound 16, 7-iodo-2,4-bis-benzyloxy-5H-pyrrolo[3,2-d]pyrimidine]
IC50 [5]: 21 ± 2 µM
IC50 [6]: 17 µM
IC50 [7]: 17 µM

Clc1nc(Cl)c2[nH]cc(I)c2n1 [Compound 20, 7-iodo-2,4-dichloro pyrrolo[3,2-d]pyrimidine]
IC50 [5]: 0.93 µM
increase of anticancer activity by a factor, compared to compound 19 [8]: 5
annexin V-positive cells (MDA-MB-231 cells [9]): robust accumulation
IC50 [6]: 4.9 µM
cells arrested in G2/M stage (MDA-MB-231 cells [10]): 30%
IC50 [7]: 0.92 µM
